Test results taken from patent publication US6087355A, “Cephalosporin antibiotics” (Microcide Pharmaceuticals, Inc., priority 1996, dated 2000).
Structures can show the parent of a compound that is named as a salt.

Key:
Assay in all cases: In vitro MIC, agar dilution
Type in all cases: cell-based
[1] = system: S. aureus Col8A(Meth^S)(lac^-); settings: S. aureus Col8A(Meth^S)(lac^-); for MIC: Staphylococcus aureus, read-out: minimum inhibitory concentration (MIC)
Summary of the method: (§1)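 Two-fold dilutions (128 to ≤0.25 μg/mL, in duplicate) were poured into Mueller-Hinton agar. Log-phase broth cultures were spot-inoculated at about 10^4 cfu per spot and incubated 35-36°C for 16-20 hours; the MIC was the lowest concentration inhibiting growth. Col is a high-level PBP2a producer; Col 8A is its isogenic PBP2a-lacking partner.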

[2] = system: S. aureus Col(Meth^R)(lac^-); settings: for MIC: Staphylococcus aureus, read-out: minimum inhibitory concentration (MIC)
Summary of the method: as §1

E. faecalis ATCC 29212 = settings: for MIC: Enterococcus faecalis, ATCC29212, read-out: minimum inhibitory concentration (MIC)
Summary of the method: (§2)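 Spots of about 10^4 cfu of log-phase culture were applied, and plates were incubated 16-20 h at 35-36 °C. MIC was the lowest concentration inhibiting growth.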

E. faecium VanA(Van^R) = settings: for MIC: Enterococcus faecium, read-out: minimum inhibitory concentration (MIC)
Summary of the method: as §2

E. coli ATCC 25992 = settings: for MIC: Escherichia coli, ATCC25992, read-out: minimum inhibitory concentration (MIC)
Summary of the method: as §2

[3] = system: S. aureus PC1(Meth^S)(lac^+); settings: for MIC: Staphylococcus aureus, read-out: minimum inhibitory concentration (MIC)
Summary of the method: as §2

P. aeruginosa ATCC 27853 = settings: for MIC: Pseudomonas aeruginosa, ATCC27853, read-out: minimum inhibitory concentration (MIC)
Summary of the method: as §2

[4] = system: S. aureus ATCC 33593(Meth^R); settings: for MIC: Staphylococcus aureus, ATCC33593, read-out: minimum inhibitory concentration (MIC)
Summary of the method: as §2

[5] = system: S. aureus ATCC 13709(Meth^S); settings: for minimum inhibitory concentration (MIC): S. aureus ATCC 13709(Meth^S); for MIC: Staphylococcus aureus, ATCC13709, S. aureus ATCC 13709(Meth^S), read-out: minimum inhibitory concentration (MIC)
Summary of the method: as §2

[6] = system: S. haemolyticus 05(Meth^R); settings: for MIC: Staphylococcus haemolyticus, read-out: minimum inhibitory concentration (MIC)
Summary of the method: as §2

[7] = system: S. aureus 76(Meth^R)(lac^+); settings: for MIC: Staphylococcus aureus, read-out: minimum inhibitory concentration (MIC)
Summary of the method: as §2

E. faecalis VanB(Van^R) = settings: for MIC: Enterococcus faecalis, read-out: minimum inhibitory concentration (MIC)
Summary of the method: as §2

[8] = system: S. aureus Spain #356(Meth^R); settings: for MIC: Staphylococcus aureus, read-out: minimum inhibitory concentration (MIC)
Summary of the method: as §2

E. faecium ATCC 35667 = settings: for MIC: Enterococcus faecium, ATCC35667, read-out: minimum inhibitory concentration (MIC)
Summary of the method: as §2

S. aureus ATCC 29213 = settings: for MIC: Staphylococcus aureus, ATCC29213, read-out: minimum inhibitory concentration (MIC)
Summary of the method: as §2

E. faecium A491(Amp^R) = settings: for MIC: Enterococcus faecium, read-out: minimum inhibitory concentration (MIC)
Summary of the method: as §2

| SMILES | MIC [1] [µg/mL] | MIC [2] [µg/mL] | MIC (E. faecalis ATCC 29212) [µg/mL] | MIC (E. faecium VanA(Van^R)) [µg/mL] | MIC (E. coli ATCC 25992) [µg/mL] | MIC [3] [µg/mL] | MIC (P. aeruginosa ATCC 27853) [µg/mL] | MIC [4] [µg/mL] | MIC [5] [µg/mL] | MIC [6] [µg/mL] | MIC [7] [µg/mL] | MIC (E. faecalis VanB(Van^R)) [µg/mL] | MIC [8] [µg/mL] | MIC (E. faecium ATCC 35667) [µg/mL] | MIC (S. aureus ATCC 29213) [µg/mL] | MIC (E. faecium A491(Amp^R)) [µg/mL] | also measured |
| --- | --- | --- | --- | --- | --- | --- | --- | --- | --- | --- | --- | --- | --- | --- | --- | --- | --- |
| CNCCNCCSCc1nnsc1SC1=C(C(=O)O)N2C(=O)[C@@H](NC(=O)/C(=N\O)c3nc(N)sc3Cl)[C@H]2SC1.O=C(O)C(F)(F)F [Cmpd 22, (7R)-7-[(Z)-2-(2-amino-5-chlorothiazol-4-yl)-2-(hydroxyimino)acetamido]-3-[(methylaminoethylaminoethylthiomethyl)-1,2,3-thiadiazol-5-ylthio]-3-cephem-4-carboxylate, trifluoroacetic acid salt] | – | – | – | – | – | – | – | – | – | – | – | – | – | – | – | – | minimum inhibitory concentration (MIC) [1]: 0.5 µg/mL; minimum inhibitory concentration (MIC) [2]: 2 µg/mL; minimum inhibitory concentration (MIC) (E. faecalis ATCC 29212): 0.13 µg/mL; minimum inhibitory concentration (MIC) (E. faecium VanA(Van^R)): 2 µg/mL; minimum inhibitory concentration (MIC) (E. coli ATCC 25992): 8 µg/mL; minimum inhibitory concentration (MIC) [3]: 1 µg/mL; minimum inhibitory concentration (MIC) (P. aeruginosa ATCC 27853): > 32 µg/mL; minimum inhibitory concentration (MIC) [4]: 2 µg/mL; minimum inhibitory concentration (MIC) [5]: 1 µg/mL; minimum inhibitory concentration (MIC) [6]: 2 µg/mL; minimum inhibitory concentration (MIC) [7]: 2 µg/mL; minimum inhibitory concentration (MIC) (E. faecalis VanB(Van^R)): 0.5 µg/mL; minimum inhibitory concentration (MIC) [8]: 2 µg/mL; minimum inhibitory concentration (MIC) (E. faecium ATCC 35667): 1 µg/mL; minimum inhibitory concentration (MIC) (S. aureus ATCC 29213): 0.25 µg/mL; minimum inhibitory concentration (MIC) (E. faecium A491(Amp^R)): 16 µg/mL |
| N=CNCCSCc1cnccc1SC1=C(C(=O)O)N2C(=O)[C@@H](NC(=O)/C(=N\O)c3csc(N)n3)[C@H]2SC1.O=C(O)C(F)(F)F [Cmpd 25, (7R)-7-[(Z)-2-(aminothiazol-4-yl)-2-(hydroxyimino)acetamido]-3-(3-(N-formamidoyl)aminoethylthiomethylpyrid-4-ylthio)-3-cephem-4-carboxylate, trifluoroacetic acid salt] | – | – | – | – | – | – | – | – | – | – | – | – | – | – | – | – | minimum inhibitory concentration (MIC) [1]: 0.25 µg/mL; minimum inhibitory concentration (MIC) [2]: 1 µg/mL; minimum inhibitory concentration (MIC) (E. faecalis ATCC 29212): 0.13 µg/mL; minimum inhibitory concentration (MIC) (E. faecium VanA(Van^R)): 2 µg/mL; minimum inhibitory concentration (MIC) (E. coli ATCC 25992): 4 µg/mL; minimum inhibitory concentration (MIC) [3]: 0.25 µg/mL; minimum inhibitory concentration (MIC) (P. aeruginosa ATCC 27853): > 32 µg/mL; minimum inhibitory concentration (MIC) [4]: 1 µg/mL; minimum inhibitory concentration (MIC) [5]: 0.25 µg/mL; minimum inhibitory concentration (MIC) [6]: 2 µg/mL; minimum inhibitory concentration (MIC) [7]: 2 µg/mL; minimum inhibitory concentration (MIC) (E. faecalis VanB(Van^R)): 0.13 µg/mL; minimum inhibitory concentration (MIC) [8]: 2 µg/mL; minimum inhibitory concentration (MIC) (E. faecium ATCC 35667): 1 µg/mL; minimum inhibitory concentration (MIC) (S. aureus ATCC 29213): 0.25 µg/mL; minimum inhibitory concentration (MIC) (E. faecium A491(Amp^R)): 32 µg/mL |
| N=CNCCCSCc1cnccc1SC1=C(C(=O)O)N2C(=O)[C@@H](NC(=O)/C(=N\O)c3nc(N)sc3Cl)[C@H]2SC1 [Cmpd 34, (7R)-7-[(Z)-2-(2-amino-5-chlorothiazol-4-yl)-2-(hydroxyimino)acetamido]-3-(3-(3-N-formamidoylaminopropylthiomethyl)pyrid-4-ylthio)-3-cephem-4-carboxylate, trifluoroacetic acid salt] | ≤ 0.06 | 1 | ≤ 0.06 | 0.5 | 4 | 0.13 | > 32 | 1 | ≤ 0.06 | 2 | 1 | ≤ 0.06 | 1 | 0.25 | ≤ 0.06 | 4 | – |
| NCC(=O)NCCCSCc1cnccc1SC1=C(C(=O)O)N2C(=O)[C@@H](NC(=O)/C(=N\O)c3nc(N)sc3Cl)[C@H]2SC1 [Cmpd 35, (7R)-7-[(Z)-2-(2-amino-5-chlorothiazol-4-yl)-2-(hydroxyimino)acetamido]-3-[3-(glycyl)aminopropylthiomethylpyrid-4-ylthio]-3-cephem-4-carboxylate, trifluoroacetic acid salt] | 0.25 | 2 | ≤ 0.06 | 0.5 | 8 | 0.5 | > 32 | 2 | 0.25 | 4 | 2 | 0.25 | 2 | 0.25 | 0.25 | 4 | – |
| NCCSCc1nnsc1SC1=C(C(=O)O)N2C(=O)[C@@H](NC(=O)Cc3ccccc3)[C@H]2SC1.O=C(O)C(F)(F)F [Cmpd 37, (7R)-7-[(phenylacetyl)amino]-3-(4-(2-aminoethylthiomethyl)-1,2,3-thiadiazol-5-ylthio)-3-cephem-4-carboxylate, trifluoroacetic acid salt] | ≤ 0.06 | 0.5 | 0.25 | 2 | > 32 | 1 | > 32 | 16 | ≤ 0.06 | 8 | 4 | 0.5 | 8 | 0.5 | 0.5 | > 32 | – |
| NCCSCc1nnsc1SC1=C(C(=O)O)N2C(=O)[C@@H](NC(=O)/C(=N\O)c3csc(N)n3)[C@H]2SC1 [Cmpd 38, (7R)-7-[(Z)-2-(aminothiazol-4-yl)-2-(hydroxyimino)acetamido]-3-(4-(2-aminoethylthiomethyl)-1,2,3-thiadiazol-5-ylthio)-3-cephem-4-carboxylate, trifluoroacetic acid salt] | 0.13 | 1 | 0.13 | 2 | 2 | 0.25 | > 32 | 1 | 0.13 | 2 | 1 | 0.13 | 1 | 1 | 0.13 | > 32 | – |
| NCCOCc1cnccc1SC1=C(C(=O)O)N2C(=O)[C@@H](NC(=O)/C(=N\O)c3nc(N)sc3Cl)[C@H]2SC1 [Cmpd 40, (7R)-7-[(Z)-2-(2-amino-5-chlorothiazol-4-yl)-2-(hydroxyimino)acetamido]-3-(3-(2-aminoethoxymethyl)pyrid-4-ylthio)-3-cephem-4-carboxylate, trifluoroacetic acid salt] | 0.5 | 2 | 0.13 | 2 | 8 | 0.13 | > 32 | 2 | 0.25 | 4 | 2 | 0.25 | 2 | 1 | 0.25 | 16 | – |
| Nc1nc(/C(=N/O)C(=O)N[C@@H]2C(=O)N3C(C(=O)O)=C(Sc4ccncc4CSC4CCNC4)CS[C@H]23)c(Cl)s1 (stereo partly drawn) [Cmpd 42, (7R)-7-[(Z)-2-(2-amino-5-chlorothiazol-4-yl)-2-(hydroxyimino)acetamido]-3-(3-(pyrrolidin-3-ylthiomethyl)pyrid-4-ylthio)-3-cephem-4-carboxylate, trifluoroacetic acid salt] | 0.25 | 0.5 | ≤ 0.06 | 0.5 | 2 | 0.13 | 32 | 1 | 0.13 | 2 | 1 | ≤ 0.06 | 1 | 0.25 | 0.13 | 4 | – |
| CNCC(=O)NCCSCc1cnccc1SC1=C(C(=O)O)N2C(=O)[C@@H](NC(=O)/C(=N\O)c3nc(N)sc3Cl)[C@H]2SC1 [Cmpd 43, (7R)-7-[(Z)-2-(2-amino-5-chlorothiazol-4-yl)-2-(hydroxyimino)acetamido]-3-[3-(N-methylglycyl)aminoethylthiomethylpyrid-4-ylthio]-3-cephem-4-carboxylate, trifluoroacetic acid salt] | 0.5 | 2 | 0.13 | 1 | 8 | 1 | > 32 | 2 | 0.5 | 4 | 2 | 0.25 | 2 | 1 | 0.5 | 8 | – |
